Experimental data from ChEMBL document CHEMBL1150259, “Identification of Plasmodium falciparum spermidine synthase active site binders through structure-based virtual screening” (J Med Chem, 2008).
Activity calls are given as the source filed them. No cut-off for these calls is given here.

The compounds below were run against T1, Spermidine synthase (Plasmodium falciparum) (UniProt Q9NFS5) (assay: Binding affinity to Plasmodium falciparum spermidine synthase by saturation transfer difference-NMR experiment).
T1 sequence (whole entry): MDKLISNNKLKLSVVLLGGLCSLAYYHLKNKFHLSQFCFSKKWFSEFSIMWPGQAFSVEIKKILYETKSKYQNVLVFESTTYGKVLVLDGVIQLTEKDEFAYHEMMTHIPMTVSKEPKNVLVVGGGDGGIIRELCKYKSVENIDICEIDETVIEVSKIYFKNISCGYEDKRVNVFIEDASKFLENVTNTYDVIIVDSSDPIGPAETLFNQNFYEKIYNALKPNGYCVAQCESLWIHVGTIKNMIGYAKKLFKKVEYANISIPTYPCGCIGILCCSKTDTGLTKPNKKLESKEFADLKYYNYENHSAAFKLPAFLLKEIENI
In the case of NCCCCCc1nnc(SCC(=O)Nc2cccc(Cl)c2)o1, the Activity is reported as “inactive”.
In the case of N=c1c(N)c(O)ncn1CC(=O)c1ccc(I)cc1, the Activity is reported as “inactive”.
In the case of NC(=O)CSc1nc2ncnc(N)c2[nH]1, the Activity is reported as “Active”.
For Nc1nc(N)nc(SCC(=O)NCc2ccc(F)cc2)n1, the Activity was “inactive”.
For O=C(CSc1cnn[nH]1)Nc1ncccn1, the Activity was “inactive”.
In the case of Nc1ncnc2c1ncn2[C@@H]1O[C@H](CO)[C@@H](O)[C@H]1O, the Activity is reported as “Active”.
For O=C(c1ccc2[nH]cnc2c1)N1CCN(C/C=C/c2ccccc2)CC1, the Activity was “Active”.
In the case of Nc1nnc(SCC(=O)Nc2cccc(Oc3ccccc3)c2)[nH]1, the Activity is reported as “Active”.
With O=C(c1ccc2cn[nH]c2c1)N1CCN(c2ccccn2)CC1 the Activity was “inactive”.
In the case of Cn1c(SCC(=O)c2ccc3[nH]c(=O)oc3c2)nnc1-c1ccncc1, the Activity is reported as “inactive”.
With O=C(CSc1nnc[nH]1)c1ccc2c(c1)OCCO2 the Activity was “inactive”.
Nc1nnc(SCC(=O)NCc2ccc3c(c2)OCO3)[nH]1 was tested, and the Activity was “inactive”.
For O=C1NC(=S)NC(=O)C1=CNCCc1cnc[nH]1, the Activity was “inactive”.
With O=C1C=C(NCCc2c[nH]cn2)CC1 the Activity was “inactive”.
In the case of CCCCc1nnc(NC(=O)CSc2nnc[nH]2)s1, the Activity is reported as “inactive”.
Nc1nnc(SCC(=O)NCC2CN(Cc3ccccc3)CCO2)s1 (centres undefined) was tested, and the Activity was “inactive”.
In the case of O=C(C1CCCCN1)N1CCN(Cc2cccnc2)CC1 (centres undefined), the Activity is reported as “inactive”.
NCCSC1CC(=O)N(c2ccc(F)cc2)C1=O (centres undefined) was tested, and the Activity was “inactive”.
For NCCCCCCCNC(=O)Cc1ncc(C(F)(F)F)cc1Cl, the Activity was “inactive”.
In the case of NC(=O)c1ncn([C@@H]2O[C@H](CO)[C@@H](O)[C@H]2O)n1, the Activity is reported as “inactive”.
With O=C(CSc1nnc[nH]1)Nc1nccs1 the Activity was “inactive”.
In the case of O=C(CSc1nccc(=O)[nH]1)NCc1ccco1, the Activity is reported as “inactive”.

These compounds were tested on Plasmodium falciparum (assay: Growth inhibition of Plasmodium falciparum).
Type: functional, organism-based
In the case of CC1CCC(N)CC1 (centres undefined), the IC50 is reported as 34 µM.

What follows are compounds tested against T2, Spermidine synthase (Plasmodium falciparum, UniProt Q9NFS5) (assay: Inhibition of Plasmodium falciparum spermidine synthase).
T2 sequence (Q9NFS5 whole entry): T1 sequence (whole entry)
CSC[C@H]1O[C@@H](n2cnc3c(N)ncnc32)[C@H](O)[C@@H]1O [METHYLTHIOADENOSINE] showed an IC50 of 159 µM.
CC1CCC(N)CC1 (centres undefined) was tested, and the IC50 was 1.4 µM.

The compounds below were run against T1, Spermidine synthase (Plasmodium falciparum) (assay: Binding affinity to Plasmodium falciparum spermidine synthase by saturation transfer difference-NMR experiment relative to methylthioadenosine).
For NC(=O)CSc1nc2ncnc(N)c2[nH]1, the Activity was “Active”.
In the case of Nc1ncnc2c1ncn2[C@@H]1O[C@H](CO)[C@@H](O)[C@H]1O, the Activity is reported as “Active”.
For Nc1nnc(SCC(=O)Nc2cccc(Oc3ccccc3)c2)[nH]1, the Activity was “inactive”.
For NCCCCCc1nc2ccccc2[nH]1, the Activity was “Active”.
